Experimental data published in PMC12393591, “Targeting Plasminogen Activator Inhibitor-1 with a Novel Small Molecule Inhibitor Attenuates Lung Fibrosis” (Research Square, 2025).
Like-named read-outs stand apart in the source and are kept apart here. One block for each compound: values may come before it.

Legend:
[1] = tested on: idiopathic pulmonary fibrosis; set-up: method as in PMID 40387033; conditions: patients with IPF, phase 3 clinical trial; cited from earlier work
[2] = tested on: bleomycin-induced lung fibrosis; set-up: method as in PMID 26859294; conditions: mice following bleomycin injury; cited from earlier work
[3] = tested on: lung fibrosis induced by targeted type II alveolar epithelial cell injury; conditions: model of targeted AEC2 injury; previously shown by the authors; cited from earlier work
[4] = tested on: bleomycin-induced lung fibrosis; test: Single-dose bleomycin lung injury model (hydroxyproline, weight, histology); assay type: in vivo, C57BL/6 mice
Method: Weight and age matched mice were anesthetized with isoflurane and received an oropharyngeal instillation of bleomycin (2.5 u/kg in 50 μL of sterile PBS) (Sigma Pharmaceuticals). Control mice received 50 μl of PBS alone. Mice were intermittently weighed through day 21. Hydroxyproline content of the lung was measured as previously described. The left lung was inflation-fixed at 25 cm H2O pressure with 10% neutral-buffered formalin, removed en bloc, further fixed in 10% neutral-buffered formalin overnight, and then paraffin embedded. Five-micron sections were stained using hematoxylin and eosin, and picrosirius red methods.

[5] = tested on: lung fibrosis induced by targeted type II alveolar epithelial cell injury; test: Targeted AEC2 injury model (diphtheria toxin in DTR mice; hydroxyproline, weight, histology); assay type: in vivo, DTR-expressing mice (C57BL/6 background); conditions: 60 mg/kg twice daily
[6] = tested on: TGFβ-expressing adenovirus-induced lung fibrosis; set-up: method as in PMID 21852684; conditions: started 4 days after fibrosis initiation; cited from earlier work
[7] = biological target: recombinant active human PAI-1 (Homo sapiens, UniProt P05121); test: PAI-1 inhibitory activity against uPA (fluorogenic uPA substrate); assay type: biochemical; conditions: for IC50: read-out: IC50 for inhibiting the activity of PAI-1 against uPA
Sequence of recombinant active human PAI-1 (P05121 24-402): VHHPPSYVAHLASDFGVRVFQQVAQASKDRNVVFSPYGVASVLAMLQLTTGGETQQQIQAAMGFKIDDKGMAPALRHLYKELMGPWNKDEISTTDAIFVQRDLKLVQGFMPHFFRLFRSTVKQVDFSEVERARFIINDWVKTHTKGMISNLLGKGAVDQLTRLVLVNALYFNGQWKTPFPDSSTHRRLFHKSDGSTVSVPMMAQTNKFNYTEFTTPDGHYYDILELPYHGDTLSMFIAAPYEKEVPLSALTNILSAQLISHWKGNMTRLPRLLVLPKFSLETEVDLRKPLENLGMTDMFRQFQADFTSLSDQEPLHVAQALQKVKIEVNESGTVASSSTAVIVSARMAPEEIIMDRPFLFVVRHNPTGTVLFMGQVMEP

[8] = Non-GLP single dose PK, oral gavage; assay type: in vivo, CD-1 mice; conditions: mouse plasma, single dose 30 mg/kg oral gavage, n=3, mean ± SD
Method: A non-GLP comparative, single dose PK analysis of MDI-2268 versus MDI-2517 was performed by the University of Michigan Pharmacokinetics Core in CD-1 mice. Briefly, MDI-2268 or MDI-2517 were suspended in 0.5% methylcellulose in water and given orally by gavage at 30 mg/kg (10mL/kg) to 3 mice each. Blood was collected by using heparinized calibrated pipettes at 0.5h, 2h, 4h, and 7h and centrifuged immediately at 15,000g for 10 min. The plasma was collected, which was frozen at −80°C for later LC-MS analysis.

SMILES: [O-][S+]1CCc2nc(N3CCC(c4ncc(Cl)cn4)CC3)nc(NC3(CO)CCC3)c21 (stereo not shown) [BI 1015550]
- rate of lung function decline [1]: reduced the rate of lung function decline

SMILES: CC(C)(C)c1ccc2oc(-c3ccc4cc(OCCCCCC(C(=O)[O-])C(=O)[O-])ccc4c3)nc2c1.[Na+].[Na+] [SK-216]
- lung fibrosis [2]: modestly attenuate lung fibrosis

SMILES: Cc1ccc(=O)n(-c2ccccc2)c1 [pirfenidone]
- severity of pulmonary scarring [3]: attenuate the severity of pulmonary scarring

SMILES: COC(=O)c1ccc2c(c1)NC(=O)/C2=C(\Nc1ccc(N(C)C(=O)CN2CCN(C)CC2)cc1)c1ccccc1 [Nintedanib]
- body weight vs vehicle ([4]; 60 mg/kg twice daily from day 11): recovery of body weight
- lung collagen content (hydroxyproline) day 21 ([4]; 60 mg/kg twice daily, 10 days from day 11): statistically significantly attenuated
- areas of lung consolidation, picrosirius red histopathology ([4]; 60 mg/kg twice daily, 10 days from day 11, day 21): significantly attenuated
- lung hydroxyproline content day 21 ([5]; 10 days from day 11): statistically significantly reduced
- weight loss vs vehicle-treated injured group ([5]; 10 days from day 11): mitigated the severity of the weight loss
- histopathologic changes (alveolar wall thickening, picrosirius red staining) ([5]; 10 days from day 11, day 21): significantly attenuated
- severity of pulmonary scarring [3]: attenuate the severity of pulmonary scarring

SMILES: O=C(COCC(=O)N1CCN(C(c2ccccc2)c2ccccc2)CC1)Nc1ccc(Cl)cc1C(=O)O [TM5275]
- lung collagen accumulation [6]: significantly decrease lung collagen accumulation

- IC50 ([7]; buffer containing 10% human PAI-1-depleted plasma): 67 µM
- IC50 ([7]; buffer with 50 nM purified human vitronectin): 75 µM
- IC50 ([7]; in buffer alone): 140 µM
- fold more effective than Tiplaxtinin at inhibiting PAI-1 ([7]; in the presence of VTN): greater than 7 fold
- AUC0-7h obs [8]: 7405 ± 1302 ng·h/mL
SMILES: NNC(=O)C(=O)NCc1cccc(OC(F)(F)F)c1 [MDI-2268]
